The values below come from patent US8012956B2, “Tropane compounds” (Exelixis, Inc., priority 2007, dated 2011).

This experiment addresses HSP90 (Homo sapiens, UniProt P07900). Briefly: HSP90 inhibition (HSP90 IC50). It is filed as biochemical.
The compound `CC[C@@H](C)Nc1cc(C(=O)NC2CC3CCC(C2)N3c2ccc(C(=O)C3CC3)cn2)c(C)cc1C(N)=O` (stereo partly drawn) [N-{8-[5-(cyclopropylcarbonyl)pyridin-2-yl]-8-azabicyclo[3.2.1]oct-3-endo-yl}-2-methyl-5-{[(1R)-1-methylpropyl]amino}benzene-1,4-dicarboxamide] came in with an IC50 of under 0.5 µM.
The figure for `COc1cccc(C(=O)N[C@H]2C[C@H]3CC[C@@H](C2)N3c2ccc(C(=O)NCCN3CCCCC3)cn2)c1C` [6-[3-endo-({[2-methyl-3-(methyloxy)phenyl]carbonyl}amino)-8-azabicyclo[3.2.1]oct-8-yl]-N-(2-piperidin-1-ylethyl)pyridine-3-carboxamide] is 1 to 2 µM.
The figure for `COc1cccc(C(=O)N[C@H]2C[C@H]3CC[C@@H](C2)N3c2ccc(C(=O)Nc3cccc(Cl)c3)cn2)c1C` [N-(3-chlorophenyl)-6-[3-endo-({[2-methyl-3-(methyloxy)phenyl]carbonyl)amino)-8-azabicyclo[3.2.1]oct-8-yl]pyridine-3-carboxamide] is 2 to 10 µM; for `COc1cccc(C(=O)N[C@H]2C[C@H]3CC[C@@H](C2)N3c2ccc(C(=O)NCc3ccc(N4CCN(CC(C)C)CC4)cc3)cn2)c1C` [6-[3-endo-({[2-methyl-3-(methyloxy)phenyl]carbonyl}amino)-8-azabicyclo[3.2.1]oct-8-yl]-N-({4-[4-(2-methylpropyl)piperazin-1-yl]phenyl}methyl)pyridine-3-carboxamide] it is under 0.5 µM.
As for `COc1cccc(C(=O)N[C@H]2C[C@H]3CC[C@@H](C2)N3c2ccc(C(=O)NCc3c(F)ccc(C)c3Cl)cn2)c1C` [N-[(2-chloro-6-fluoro-3-methylphenyl)methyl]-6-[3-endo-({[2-methyl-3-(methyloxy)phenyl]carbonyl}amino)-8-azabicyclo[3.2.1]oct-8-yl]pyridine-3-carboxamide], the IC50 is 0.5 to 0.999 µM.
For `NC(=O)c1ccc(C(=O)NC2CC3CCC(C2)N3c2ccc(C(=O)C3CC3)cn2)cc1N[C@H]1CC[C@H](N2CCCCC2)CC1` (stereo partly drawn) [N4-{8-[5-(cyclopropylcarbonyl)pyridin-2-yl]-8-azabicyclo[3.2.1]oct-3-endo-yl}-2-[(trans-4-piperidin-1-ylcyclohexyl)amino]benzene-1,4-dicarboxamide], the IC50 was under 0.5 µM.
To `CC(=O)c1ccc(N2[C@@H]3CC[C@H]2C[C@@H](NC(=O)c2ccc(C(N)=O)c(NCC(F)(F)F)c2)C3)nc1` [N4-[8-(5-acetylpyridin-2-yl)-8-azabicyclo[3.2.1]oct-3-endo-yl]-2-[(2,2,2-trifluoroethyl)amino]benzene-1,4-dicarboxamide] belongs under 0.5 µM; to `CCC(CC)Nc1cc(C(=O)NC2CC3CCC(C2)N3c2ccc(C(=O)N[C@@H]3CCN(C(C)C)C3)cn2)c(C)cc1C(N)=O` (stereo partly drawn) [5-[(1-ethylpropyl)amino]-2-methyl-N-{8-[5-({[(3R)-1-(1-methylethyl)pyrrolidin-3-yl]amino}carbonyl)pyridin-2-yl]-8-azabicyclo[3.2.1]oct-3-endo-yl}benzene-1,4-dicarboxamide], under 0.5 µM.
To `COc1cccc(C(=O)N[C@H]2C[C@H]3CC[C@@H](C2)N3c2ccc(C(=O)NCc3ccc(OC(F)(F)F)cc3)cn2)c1C` [6-[3-endo-({[2-methyl-3-(methyloxy)phenyl]carbonyl}amino)-8-azabicyclo[3.2.1]oct-8-yl]-N-({4-[(trifluoromethyl)oxy]phenyl}methyl) pyridine-3-carboxamide] belongs 2 to 10 µM.
The figure for `NC(=O)c1ccc(C(=O)N[C@H]2C[C@H]3CC[C@@H](C2)N3c2ccc(C(=O)CCNc3ccc(F)cc3)cn2)cc1NCC1CC1` [2-[(cyclopropylmethyl)amino]-N4-(8-{5-(N-(4-fluorophenyl)-beta-alanyl]pyridin-2-yl}-8-azabicyclo[3.2.1]oct-3-endo-yl)benzene-1,4-dicarboxamide] is 2 to 10 µM; for `CCC(CC)Nc1cc(C(=O)N[C@H]2C[C@H]3CC[C@@H](C2)N3c2ccc(C(C)=O)cn2)ccc1C(N)=O` [N4-[8-(5-acetylpyridin-2-yl)-8-azabicyclo[3.2.1]oct-3-endo-yl]-2-[(1-ethylpropyl)amino]benzene-1,4-dicarboxamide] it is under 0.5 µM.
In the case of `COc1ccc(Nc2cc(C(=O)N[C@H]3C[C@H]4CC[C@@H](C3)N4c3ccc(C(C)=O)cn3)ccc2C(N)=O)cc1OCCN1CCOCC1` [N4-[8-(5-acetylpyridin-2-yl)-8-azabicyclo[3.2.1]oct-3-endo-yl]-2-({4-(methyloxy)-3-[(2-morpholin-4-ylethyl)oxy]phenyl}amino)benzene-1,4-dicarboxamide], the IC50 was under 0.5 µM.
`COc1ccc(CNC(=O)c2ccc(N3[C@@H]4CC[C@H]3C[C@@H](NC(=O)c3cccc(OC)c3C)C4)nc2)cc1OC` [N {[3,4-bis(methyloxy)phenyl]methyl}-6-[3-endo-({[2-methyl-3-(methyloxy)phenyl]carbonyl}amino)-8-azabicyclo[3.2.1]oct-8-yl]pyridine-3-carboxamide] had an IC50 of under 0.5 µM.
The figure for `COc1cccc(C(=O)N[C@H]2C[C@H]3CC[C@@H](C2)N3c2ccc(C(=O)Nc3cccc(C)c3)cn2)c1C` [6-[3-endo-({[2-methyl-3-(methyloxy)phenyl]carbonyl}amino)-8-azabicyclo[3.2.1]oct-8-yl]-N-(3-methylphenyl)pyridine-3-carboxamide] is 2 to 10 µM; for `CCOC(=O)N1CCC(NC(=O)c2ccc(N3[C@@H]4CC[C@H]3C[C@@H](NC(=O)c3cccc(OC)c3C)C4)nc2)CC1` [ethyl 4-[({6-[3-endo-({[2-methyl-3-(methyloxy)phenyl]carbonyl}amino)-8-azabicyclo[3.2.1]oct-8-yl]pyridin-3-yl}carbonyl)amino]piperidine-1-carboxylate] it is under 0.5 µM; for `CC(=O)c1ccc(N2[C@@H]3CC[C@H]2C[C@@H](NC(=O)c2ccc(C(N)=O)c(N4CCC4)c2)C3)nc1` [N4-[8-(5-acetylpyridin-2-yl)-8-azabicyclo[3.2.1]oct-3-endo-yl]-2-azetidin-1-ylbenzene-1,4-dicarboxamide] it is 2 to 10 µM.
On to `CCCNc1cc(C(=O)N[C@H]2C[C@H]3CC[C@@H](C2)N3c2ccc(C(=O)C3CC3)cn2)c(C)cc1C(N)=O` [N-{8-[5-(cyclopropylcarbonyl)pyridin-2-yl]-8-azabicyclo[3.2.1]oct-3-endo-yl}-2-methyl-5-(propylamino)benzene-1,4-dicarboxamide], for which the IC50 is under 0.5 µM.
For `CN1CCN(c2ccc(CNC(=O)c3ccc(N4[C@@H]5CC[C@H]4C[C@@H](NC(=O)c4ccc(C(N)=O)cc4)C5)nc3)cc2)CC1` [N-(8-{5-[({[4-(4-methylpiperazin-1-yl)phenyl]methyl}amino)carbonyl]pyridin-2-yl}-8-azabicyclo[3.2.1]oct-3-endo-yl)benzene-1,4-dicarboxamide], the IC50 is under 0.5 µM.
To `Cc1cc(C(=O)NC2CC3CCC(C2)N3c2ccc(C(=O)N[C@@H]3CCCN(C(C)C)C3)cn2)c(C)cc1C(N)=O` (stereo partly drawn) [2,5-dimethyl-N-{8-[5-({[(3R)-1-(1-methylethyl)piperidin-3-yl]amino}carbonyl)pyridin-2-yl]-8-azabicyclo[3.2.1]oct-3-endo-yl}benzene-1,4-dicarboxamide] belongs under 0.5 µM; to `COc1cccc(C(=O)N[C@H]2C[C@H]3CC[C@@H](C2)N3c2ccc(C(N)=O)cn2)c1CCCCO` [6-[3-endo-({[2-(4-hydroxybutyl)-3-(methyloxy)phenyl]carbonyl}amino)-8-azabicyclo[3.2.1]oct-8-yl]pyridine-3-carboxamide], 0.5 to 0.999 µM.
In turn, `COc1cccc(C(=O)N[C@H]2C[C@H]3CC[C@@H](C2)N3c2ccc(C(=O)NCc3c(F)ccc(F)c3F)cn2)c1C` [6-[3-endo-({[2-methyl-3-(methyloxy)phenyl]carbonyl}amino)-8-azabicyclo[3.2.1]oct-8-yl]-N-[(2,3,6-trifluorophenyl)methyl]pyridine-3-carboxamide] registered an IC50 of 0.5 to 0.999 µM.
To `CC(C)[C@@H](C)Nc1cc(C(=O)NC2CC3CCC(C2)N3c2ccc(C(=O)C3CC3)cn2)ccc1C(N)=O` (stereo partly drawn) [N4-(8-[5-(cyclopropylcarbonyl)pyridin-2-yl]-8-azabicyclo[3.2.1]oct-3-endo-yl)-2-{[(1R)-1,2-dimethylpropyl]amino}benzene-1,4-dicarboxamide] belongs under 0.5 µM; to `C[C@H](NC(=O)c1ccc(N2C3CCC2CC(NC(=O)c2ccc(C(N)=O)c(NCCN4CCOCC4)c2)C3)nc1)c1ccc(N2CCN(C)CC2)cc1` (stereo partly drawn) [N4-(8-{5-[({(1S)-1-[4-(4-methylpiperazin-1-yl)phenyl]ethyl}amino)carbonyl]pyridin-2-yl}-8-azabicyclo[3.2.1]oct-3-endo-yl)-2-[(2-morpholin-4-ylethyl)amino]benzene-1,4-dicarboxamide], under 0.5 µM.
`CC(Nc1c(C(N)=O)ccc(C(=O)N[C@H]2C[C@H]3CC[C@@H](C2)N3c2ccc(C(=O)C3CC3)cn2)c1Cl)C1CC1` (stereo partly drawn) [2-chloro-N-{8-[5-(cyclopropylcarbonyl)pyridin-2-yl]-8-azabicyclo[3.2.1]oct-3-endo-yl}-3-[(1-cyclopropylethyl)amino]benzene-1,4-dicarboxamide]: the IC50 is under 0.5 µM.
For the compound `COc1cccc(C(=O)N[C@H]2C[C@H]3CC[C@@H](C2)N3c2ccc(C(=O)NCCSC)cn2)c1C` [6-[3-endo-({[2-methyl-3-(methyloxy)phenyl]carbonyl}amino)-8-azabicyclo[3.2.1]oct-8-yl]-N-[2-(methylthio)ethyl]pyridine-3-carboxamide], the IC50 was in the range of 1 to 2 µM.
`Cc1cc(C(N)=O)c(NC(C)C)cc1C(=O)N[C@H]1C[C@H]2CC[C@@H](C1)N2c1ccc(C(=O)C2CC2)cn1` [N-{8-[5-(cyclopropylcarbonyl)pyridin-2-yl]-8-azabicyclo[3.2.1]oct-3-endo-yl}-2-methyl-5-[(1-methylethyl)amino]benzene-1,4-dicarboxamide] returned an IC50 of under 0.5 µM.
The figure for `COc1cccc(C(=O)N[C@H]2C[C@H]3CC[C@@H](C2)N3c2ccc(C(N)=O)cn2)c1C` [6-[3-endo-({[2-methyl-3-(methyloxy)phenyl]carbonyl}amino)-8-azabicyclo[3.2.1]oct-8-yl]pyridine-3-carboxamide] is 0.5 to 0.999 µM; for `COc1cccc(C(=O)N[C@H]2C[C@H]3CC[C@@H](C2)N3c2ccc(C(=O)Nc3ccc(N4CCN(C)CC4)cc3)cn2)c1C` [6-[3-endo-({[2-methyl-3-(methyloxy)phenyl]carbonyl}amino)-8-azabicyclo[3.2.1]oct-8-yl]-N-[4-(4-methylpiperazin-1-yl)phenyl]pyridine-3-carboxamide] it is under 0.5 µM.

The IC50 is the concentration at which inhibition is half-maximal. A low value points to greater potency in that assay.
